Laboratory results: article PMC9127117, “Towards discovery of inhibitors of the undecaprenyl-pyrophosphate phosphatase BacA by virtual high-throughput screening” (Computational and Structural Biotechnology Journal, 2022)
Entries after “also recorded” stand apart in the source; their conditions may differ.

Experiments:
[1] = test system: BWbacA-singleΔtolC strain; test: Growth inhibition / MIC in 2YT liquid medium; format: cell-based, E. coli; conditions: for class of antibacterial activity (Figure S2): BWΔtolC and BWbacA-singleΔtolC strains, 250 and 500 µM; for MIC: BWbacA-singleΔtolC strain; for growth inhibition: TolC/PAP2-depleted BWbacA-singleΔtolC, 500 µM compound
Description: (§1) Bacteria were grown in 2YT broth supplemented, when required, with ampicillin or kanamycin at concentrations of 100 and 50 µg/ml, respectively. The BWΔtolC strain was obtained from the Keio collection. The BWΔbacAΔtolC and BWbacA-singleΔtolC were generated by P1 transduction of the ΔtolC::Kan^R cassette from BWΔtolC strain to BWΔbacA and DMEG9 recipient strains, respectively. The strains S. aureus RN4220 and S. pneumoniae R6 were used to evaluate the antibacterial activity of certain compounds. S. aureus was grown on BHI (Brain Heart Infusion) broth and S. pneumoniae was grown on Colombia broth supplemented with 5% horse blood.
(§2) For compounds displaying inhibitory activity on BacA catalysis, their antibacterial activity was tested on different E. coli strains by monitoring bacterial growth in the presence of compounds (125, 250 and 500 µM). One colony was cultured in 10 ml of 2YT liquid medium and incubated at 37℃ for 6 h. The absorbance of the culture at 600 nm (A600) was measured to prepare a bacterial suspension in 2YT liquid medium at 15.10^6 CFU/ml (A600 = 1 corresponds to 3.10^8 CFU/ml). The bacterial suspension (200-µl) was then grown on 96-well plates in the presence or not of compounds (5-µl), which was added from a stock solution prepared in DMSO. Negative controls were then performed by growing the cells without inhibitors in 2YT medium and in 2YT medium supplemented with 2.5% of DMSO. The plates were incubated at 37℃ overnight with A600 measurements every 10 min using a Tecan F200 PRO microplate reader (iControl software).

BWΔtolC strain = test: Growth inhibition in 2YT liquid medium (off-target activity); format: cell-based, E. coli; conditions: for growth inhibition: TolC-depleted BWΔtolC; for Off-target activity: antibacterial activity against BWΔtolC
Description: as §1, §2

PgpB = target: T1, PgpB (Escherichia coli, UniProt P0A924); test: C55-PP phosphatase assay of PgpB; format: biochemical, E. coli; conditions: 100 µM compound; data not shown
T1 construct: made in house
T1 sequence (P0A924 whole entry): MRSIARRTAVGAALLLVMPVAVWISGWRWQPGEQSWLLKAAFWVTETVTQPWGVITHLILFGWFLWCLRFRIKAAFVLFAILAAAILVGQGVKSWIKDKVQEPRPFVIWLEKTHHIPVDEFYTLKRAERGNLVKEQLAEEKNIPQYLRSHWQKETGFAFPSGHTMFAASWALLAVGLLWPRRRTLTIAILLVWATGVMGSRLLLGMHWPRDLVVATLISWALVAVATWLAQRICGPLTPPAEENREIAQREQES
Description: C43(DE3) cells carrying pTrcBac30 plasmid were used for the expression of N-terminally His6-tagged BacA (His6-BacA) protein from E. coli. Cells were grown in 2YT-ampicillin at 37 °C and when the OD600 reached 0.9, the temperature of the culture was decreased to 22 °C and protein expression was induced by addition of 1 mM IPTG. Incubation was continued overnight at 22 °C and bacteria were harvested in the cold and washed in a buffer containing 20 mM Tris-HCl, pH 7.4, 0.4 M NaCl, 10% glycerol and 10 mM β-mercaptoethanol (buffer A). The cells were disrupted by three successive passages through a French press and the suspension was centrifuged at 200,000× g, 4 °C for 45 min. The pellet of membranes was washed with buffer A. The membranes were resuspended in buffer A supplemented by 2% DDM detergent. […] Fractions containing the BacA protein were subjected to an additional gel-filtration purification step on Superdex 200 (HiLoadTM 16/600 SuperdexTM 200) equilibrated in 0.1% DDM-containing buffer A. 1-ml fractions were collected and analysed by SDS-PAGE. […]
The C55-PP phosphatase activity of BacA was assessed by measuring the percentage of transformation of [^14C]C55-PP into [^14C]C55-P upon incubation with BacA by TLC analysis. […] The radioactive spots were located and quantified with a radioactivity scanner. […] The C55-PP phosphatase activity of PgpB was measured as described for BacA.

S. pneumoniae R6 = test: Double-disc diffusion test with bacitracin; format: cell-based
Description: To evaluate the antibacterial activity of the compounds per se or in combination with bacitracin, against S. aureus RN4220 and S. pneumoniae R6 strains, disc diffusion method was used according to the CLSI guidelines. Bacterial suspensions equivalent to 10^8 CFU/ml were prepared in 5 ml BHI broth. A BHI-agar plate (for S. aureus) or Colombia-agar plate supplemented with 5% Horse Blood (for S. pneumoniae) were then flooded with a bacterial suspension for 1 min to allow the bacteria to sediment before removing the excess of medium. The commercial discs loaded with 130 µg of bacitracin (Biorad) was positioned on top of the bacterial lawn at distances of 10 mm (center to center) from another sterile and blank disc, which was then loaded with 7 µL of a compound solution (50 µg). The plates were incubated at 37 °C for 24 h and the diameter of the growth inhibition zone was measured and a photo of the plates was acquired using a ChemiDoc™ MP System.
Figure S3. Test of antibacterial activity of BacA inhibitors against S. aureus RN4220 (A) and S. pneumonia R6 (B) strains. Bacitracin (130 µg)- and compound (50 µg)-loaded discs were positioned at 10 mm of distance on top of a bacterial lawn. The plates were incubated overnight at 37 °C. These images are representative of three independent tests. […]

BacA = BacA (Escherichia coli, UniProt P60932); conditions: for IC50 / BacA RA (%): 50 µM C55-PP, 5 nM BacA; for IC50: average of at least three experiments; for BacA RA (%): residual activity in the presence of 100 µM compound, 10 min 37 °C
Sequence of BacA (P60932 whole entry): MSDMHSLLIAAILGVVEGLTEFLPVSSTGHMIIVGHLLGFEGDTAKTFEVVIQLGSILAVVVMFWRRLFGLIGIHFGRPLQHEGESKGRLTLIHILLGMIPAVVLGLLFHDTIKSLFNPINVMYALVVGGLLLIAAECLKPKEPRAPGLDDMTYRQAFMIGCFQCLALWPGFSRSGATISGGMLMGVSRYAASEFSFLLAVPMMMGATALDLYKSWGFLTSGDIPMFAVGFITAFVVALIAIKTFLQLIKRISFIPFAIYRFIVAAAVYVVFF
Description: C43(DE3) cells carrying pTrcBac30 plasmid were used for the expression of N-terminally His6-tagged BacA (His6-BacA) protein from E. coli. Cells were grown in 2YT-ampicillin at 37 °C and when the OD600 reached 0.9, the temperature of the culture was decreased to 22 °C and protein expression was induced by addition of 1 mM IPTG. Incubation was continued overnight at 22 °C and bacteria were harvested in the cold and washed in a buffer containing 20 mM Tris-HCl, pH 7.4, 0.4 M NaCl, 10% glycerol and 10 mM β-mercaptoethanol (buffer A). The cells were disrupted by three successive passages through a French press and the suspension was centrifuged at 200,000× g, 4 °C for 45 min. The pellet of membranes was washed with buffer A. The membranes were resuspended in buffer A supplemented by 2% DDM detergent. This mixture was incubated for 2 h at 4 °C under agitation before being centrifuged as described above. The supernatant containing solubilised membrane proteins was used for the purification of His6-BacA on Ni^2+-NTA-agarose. The supernatant was incubated overnight at 4 °C under agitation with 2 ml of Ni^2+-NTA-agarose polymer pre-equilibrated with buffer A supplemented with 10 mM imidazole and 0.2% DDM. The mixture was then transferred into a Poly-prep chromatography column (Biorad) and the polymer was washed with 50 ml of buffer A containing 0.2% DDM and successively 10 and 30 mM imidazole. The elution of BacA was then performed with buffer A containing 0.2% DDM and 400 mM imidazole. Fractions containing the BacA protein were subjected to an additional gel-filtration purification step on Superdex 200 (HiLoadTM 16/600 SuperdexTM 200) equilibrated in 0.1% DDM-containing buffer A. 1-ml fractions were collected and analysed by SDS-PAGE. Pure fractions were pooled and concentrated to 1 mg/ml (50000 MWCO concentrator, Vivaspin™ 20). […] PgpB was purified as previously described.
The C55-PP phosphatase activity of BacA was assessed by measuring the percentage of transformation of [^14C]C55-PP into [^14C]C55-P upon incubation with BacA by TLC analysis. The butanol from the [^14C]C55-PP solution was dried under vacuum so as to evaporate the organic solvent and to recover C55-PP as a lipidic film. […] The compounds (1 µL) were added to the reaction mixture at 100 µM final concentration (at the first instance) from a 2 mM stock solution prepared in DMSO. A blank experiment without compound, but with 1 µL DMSO, was performed in order to determine the 100 % of BacA activity to which all other experiments were compared. BacA (2 µL) was then added at a final concentration of 5 nM from a dilution solution prepared in the reaction buffer. The concentration of enzyme was fixed so that the consumption of substrate at the end of the incubation time in the control was less than 30%. The reaction mixture was incubated for 10 min at 37 °C and the catalysis was stopped by freezing in liquid nitrogen. The radiolabelled substrate (C55-PP) and product (C55-P) were separated by TLC on pre-coated plates of silica gel 60 (Merck) using propanol/ammonium hydroxide/water (6:3:1, v/v/v) as a mobile phase. The radioactive spots were located and quantified with a radioactivity scanner. […] Dose-response curves were plotted as BacA residual activity (RA) versus the logarithms of inhibitor concentration. […] Reported values are the average of at least three experiments. The C55-PP phosphatase activity of PgpB was measured as described for BacA.
The activity of BacA was then investigated by monitoring the initial velocity of [^14C]C55-PP dephosphorylation, as described in Material and methods section. […] The compounds were prepared as 2 mM DMSO stock solutions, resulting in a 5 % final concentration of DMSO in the reaction mixture.

[2] = test system: E. coli BW25113 wild type strain; test: Growth inhibition in 2YT liquid medium; format: cell-based; conditions: 500 µM compound
Description: as §2
(§3) Two compounds, 3 and 5, were assessed for antibacterial activity using the broth microdilution method against the E. coli BW25113 wild type strain. […] Considering the plurality of C55-PP phosphatases in E. coli, the inhibition of BacA may not induce growth inhibition as long as the PAP2 enzymes (PgpB, YbjG, and LpxT) are functional. Consequently, compounds 3 and 5 were tested against a BW25113 variant in which the PAP2 enzymes were depleted (DMEG9 strain, alias BWbacA-single). […]

[3] = test system: DMEG9 strain, alias BWbacA-single; test: Growth inhibition in 2YT liquid medium; format: cell-based, E. coli; conditions: PAP2-depleted DMEG9; 500 µM compound
Description: as §2, §3

BWΔbacAΔtolC strain = test: Growth inhibition in 2YT liquid medium; format: cell-based, E. coli; conditions: BacA and TolC depleted; 500 µM compound
Description: as §1
For compounds displaying inhibitory activity on BacA catalysis, their antibacterial activity was tested on different E. coli strains by monitoring bacterial growth in the presence of compounds (125, 250 and 500 µM). One colony was cultured in 10 ml of 2YT liquid medium and incubated at 37℃ for 6 h. The absorbance of the culture at 600 nm (A600) was measured to prepare a bacterial suspension in 2YT liquid medium at 15.10^6 CFU/ml (A600 = 1 corresponds to 3.10^8 CFU/ml). […] The plates were incubated at 37℃ overnight with A600 measurements every 10 min using a Tecan F200 PRO microplate reader (iControl software). […]

[4] = test system: BWbacA-singleΔtolC strain carrying the empty vector (pTRCH30); test: Growth inhibition, control strain carrying the empty vector; format: cell-based, E. coli; conditions: 500 µM compound
Description: as §2
(§4) To further assess the specificity of compounds 3 and 5 with respect to BacA, they were tested against the strain depleted of both TolC and PAP2 but overexpressing an ectopic copy of the bacA gene on a plasmid.

[5] = test system: BWbacA-singleΔtolC strain overexpressing an ectopic copy of the bacA gene on a plasmid; test: Growth inhibition upon bacA overexpression; format: cell-based, E. coli; conditions: bacA overexpressed in trans; 500 µM compound
Description: as §2, §4

O=C(O)c1csc(S(=O)(=O)Nc2ccc(SCc3cccnc3)cc2)c1 [Compound 1, 5-{p-[(3-pyridyl)methylthio]phenylaminosulfonyl}-3-thenoic acid]
class of antibacterial activity (Figure S2) [1]: without any antibacterial activity whatever the strain
MIC ([1]; Escherichia coli, 125, 250 and 500 µM tested): > 500 µM
MIC ([1]; Escherichia coli, class symbol ND): > 500 µM
growth inhibition (BWΔtolC strain; 500 µM compound): no growth inhibition
Off-target activity (BWΔtolC strain): No

O=C(O)c1csc(S(=O)(=O)Nc2ccc(N3CCCC3)c(F)c2)c1 [Compound 4]
MIC [1]: 92 µg/mL
MIC ([1]; 125, 250 and 500 µM tested): 250 µM
class of antibacterial activity (Figure S2) [1]: antibacterial activity on both strains
growth inhibition [1]: total growth inhibition
growth inhibition (BWΔtolC strain; 250 µM compound): no effect
growth inhibition (BWΔtolC strain; 500 µM compound): moderate inhibition
Off-target activity (BWΔtolC strain): Yes
inhibition of PgpB (PgpB): not inhibited
antibacterial activity per se (inhibition zone around compound-loaded disc) (S. pneumoniae R6; 50 µg compound disc): no inhibition zone
inhibition zone of bacitracin in proximity of the compound (S. pneumoniae R6; 130 µg bacitracin disc, 50 µg compound disc at 10 mm): 10 mm

CC(C)Oc1ccc(NS(=O)(=O)c2cc(C(=O)O)cs2)cc1 [Compound 7]
IC50 (BacA): 366 ± 73 µM
BacA RA (%) (BacA): 80 ±10%
MIC [1]: 170 µg/mL
MIC ([1]; 125, 250 and 500 µM tested): 500 µM
class of antibacterial activity (Figure S2) [1]: strong specificity towards BacA
growth inhibition [1]: total growth inhibition
growth inhibition (BWΔtolC strain; 500 µM compound): no effect
Off-target activity (BWΔtolC strain): No

O=C(O)c1csc(S(=O)(=O)Nc2ccc3ccccc3c2)c1 [Compound 6]
IC50 (BacA): 151 ± 13 µM
BacA RA (%) (BacA): 70 ± 18%
MIC [1]: 83 µg/mL
MIC ([1]; 125, 250 and 500 µM tested): 250 µM
class of antibacterial activity (Figure S2) [1]: antibacterial activity on both strains
growth inhibition [1]: total growth inhibition
growth inhibition (BWΔtolC strain; 250 µM compound): no effect
growth inhibition (BWΔtolC strain; 500 µM compound): moderate inhibition
Off-target activity (BWΔtolC strain): Yes

O=C(O)c1csc(S(=O)(=O)Nc2ccc3[nH]c(=O)sc3c2)c1 [Compound 5]
IC50 (BacA): 338 ± 35 µM
BacA RA (%) (BacA): 76 ± 13%
MIC ([1]; 125, 250 and 500 µM tested): > 500 µM
MIC ([1]; class symbol ND): ND (no growth inhibition detected up to 500 µM compound)
class of antibacterial activity (Figure S2) [1]: without any antibacterial activity whatever the strain
growth inhibition [1]: no growth inhibition
growth inhibition (BWΔtolC strain; 500 µM compound): did not lead to any growth inhibition; also recorded: no growth inhibition
Off-target activity (BWΔtolC strain): No
growth inhibition [2]: No growth inhibition
growth inhibition [3]: no growth inhibition
growth inhibition (BacA-independent activity) (BWΔbacAΔtolC strain): did not display any antibacterial activity
growth inhibition [4]: did not display any antibacterial activity
growth inhibition upon bacA overexpression [5]: did not display any antibacterial activity

Cc1ccc(NS(=O)(=O)c2cc(C(=O)O)cs2)cc1C [Compound 2]
IC50 (BacA): 132 ± 22 µM
nature of the inhibition (compound versus substrate competition kinetics) (BacA; 25 to 300 µM substrate, 200 µM compound): non-competitive inhibitors
BacA RA (%) (BacA): 66± 17%
MIC [1]: 155 µg/mL
MIC ([1]; 125, 250 and 500 µM tested): 500 µM
class of antibacterial activity (Figure S2) [1]: strong specificity towards BacA
growth inhibition [1]: total growth inhibition
growth inhibition (BWΔtolC strain; 500 µM compound): no effect
Off-target activity (BWΔtolC strain): No

bacitracin [reference compound]
inhibition zone of bacitracin (S. pneumoniae R6; 130 µg bacitracin disc alone): 7.5 mm
